Patent publication US7456161B2 (Epigenesis Pharmaceuticals, LLC, priority 2001, dated 2008)
Entries after “also recorded” stand apart in the source; their conditions may differ.

Assays:
Intracellular Adenosine = assay: In vivo effect on adenosine levels in various rat tissues (HPLC, spectrofluorometric detection)
Protocol: Folinic acid (50 mg/kg) was administered intraperitoneally once daily for fourteen days. […] Hearts were removed from animals and flash frozen in liquid nitrogen with 10 seconds of death. Liver and lungs were removed en bloc and flash frozen within 30 seconds of death. Brain tissue was subsequently dissected.

HT-29 SF cells [1] = assay: Cell cycle distribution by flow cytometry (propidium iodide) and reversal of the DHEA effect; type: cell-based, human; conditions: for cell morphology: HT-29 SF cells exposed to DHEA, data not shown
HT-29 SF cells [2] = assay: DHEA effect on cell growth (cell number, Coulter counter) and its reversal by supplements; type: cell-based, human; conditions: 12.5-200 μM, 24-72 hours

Nc1nc(=O)c2c([nH]1)NCC(CNc1ccc(C(=O)N[C@@H](CCC(=O)O)C(=O)O)cc1)N2C=O (mixture of isomers) [Folinic Acid (F.A.), Folinic acid]
effect on tissue adenosine levels (in words) (Intracellular Adenosine; rats, daily for two weeks, listed as Folinic acid): increase in adenosine levels for all organs studied
effect on tissue adenosine levels (in words) (Intracellular Adenosine; rats, daily for two weeks, listed as folinic acid): completely abrogated steroid-mediated adenosine depletion

C[C@]12CC[C@H](O)CC1=CC[C@@H]1[C@@H]2CC[C@]2(C)C(=O)CC[C@@H]12 [DHEA, (3β)-3-hydroxyandrost-5-en-17-one]
cell cycle distribution (HT-29 SF cells [1]; 200 μM DHEA, after 24 hours): increase in the percentage of cells in G1 and a decreased proportion of cells in S phase
effect on cell cycle (G1, S phase) with time of exposure (in words) (HT-29 SF cells [1]; 25-200 μM DHEA, 24-72 hours): G1 block in HT-29 SF cells in a time-and dose-dependent manner; also recorded: progressively reduced the proportion of cells in S phase
cell morphology (HT-29 SF cells [1]): acquiring a rounded shape
effect on tissue adenosine levels (in words) (Intracellular Adenosine; rat, in vivo): multi-organ depletion of adenosine
inhibition of growth of HT-29 SF cells (in words) (HT-29 SF cells [2]): time- and dose-dependent inhibition of growth

C[C@@](O)(CCO)CC(=O)O [MVA, mevalonic acid, reference compound]
prevention of DHEA-induced S phase depletion (HT-29 SF cells [1]; 25 FM DHEA, 72 hours): not after 72 hours
cell morphology (HT-29 SF cells [1]): prevented only by the addition of MVA

C[C@]12CCC(=O)C=C1CC[C@@H]1[C@@H]2CC[C@@]2(C)[C@H]1CC[C@]2(C)O [Methyltestosterone, methyltestosterone]
effect on tissue adenosine levels (in words) (Intracellular Adenosine; rats, daily for two weeks): multi-organ depletion of adenosine
